Reference: PMC4250329 (Bioorganic & medicinal chemistry letters, 2014)
“Also recorded” adds a separate entry of the source. Where two headings read alike, the source gives them in different places.

Key:
JAK2 = assay: Western blot of pJAK2/JAK2; assay type: cell-based; details: Western blot analysis
panel of >80 kinases = assay: Kinase panel; assay type: biochemical; details: data not shown
[1] = test system: four HNSCC cell lines (CAL33, FADU, 686 LN, OSC19); assay: Anti-proliferative activity in panel of HNSCC cell lines; assay type: cell-based
[2] = test system: IFNγ-induced activation of the STAT1 pathway; assay: HCS of IFNγ-induced STAT1 pathway activation; details: for inhibition at 50 µM: read-out: inhibition of IFNγ-induced STAT1 activation
JAK1 = assay: Western blot of pJAK1/JAK1; assay type: cell-based; details: Western blot analysis
[3] = test system: IL-6-induced STAT3 tyrosine phosphorylation and nuclear translocation; assay: High content screen; assay type: cell-based; details: for SI (STAT1/STAT3), selectivity index ratio: Table 3; for selectivity against pSTAT1 / activity (STAT3): summary of Table 3
[4] = read-out: anti-proliferative activity

CCOc1ccc2nc(NC3=NC(C)=CC(C)(C)N3)nc(C)c2c1 [11a, 6-ethoxy-4-methylquinazoline-2-amino-dihydro-trimethylpyrimidine]
effects on pJAK2/JAK2 (JAK2): no effects; also recorded: did not show any effects | activity against a panel of >80 kinases (panel of >80 kinases): did not exhibit any significant activity | IC50 ([1]; read-out: anti-proliferative activities IC50's): 17 to 37 µM | effect on IFNγ-induced activation of the STAT1 pathway ([2]; at 50 μM): no effect | inhibition at 50 µM [2]: < 50% | effects on pJAK1/JAK1 (JAK1): no effects; also recorded: did not show any effects

CC1=CC(C)(C)N=C(Nc2nc(C)c3cc(C)ccc3n2)N1 [11b]
IC50 [1, 4]: 1 to 50 µM | inhibition at 50 µM [2]: < 50% | improved potency compared to the original hit 11a ([3]; STAT3, text b9): 4 fold | potency against STAT3 ([3]; summary b20): low-micromolar potency

CC1=CC(C)(C)N=C(Nc2nc(C)c3cc(C)cc(C)c3n2)N1 [11c]
IC50 [1, 4]: 1 to 50 µM | potency against STAT3 ([3]; summary b20): low-micromolar potency | improvement in STAT3 inhibition ([3]; versus 11a): 20 fold

CCOc1ccc2c(C)nc(NC3=NC(C)=CC(C)(C)N3)nc2c1 [11d]
inhibition at 50 µM [2]: < 50%

Cc1cc(C)c2nc(Nc3nc(C)c(C)c(O)n3)nc(C)c2c1 [19b]
SI (STAT1/STAT3), selectivity index ratio [3]: >7 | selectivity against pSTAT1 [3]: ≥ 3 fold

CCOc1ccc2nc(Nc3nc(=O)cc(C)[nH]3)nc(C)c2c1 [19e]
activity (STAT3) [3]: completely abolished activity

Cc1cc2nc(Nc3nc(=O)c(C)c(C)[nH]3)nc(C)c2cc1C [19n]
selectivity against pSTAT1 [3]: ≥ 3 fold

Cc1[nH]c(Nc2nc(C)c3cc4c(cc3n2)OCO4)nc(=O)c1C [19p]
activity (STAT3) [3]: completely abolished activity

Cc1nc(Nc2nc(=O)cc(-c3ccccc3)[nH]2)nc2cc3c(cc12)OCO3 [19q]
SI (STAT1/STAT3), selectivity index ratio [3]: >3

CC(C)(C)c1nc2c3ccc(F)cc3c3c(=O)[nH]ccc3c2[nH]1 [compound 6, reference compound]
potency against STAT1 [2]: nanomolar potencies | potency against STAT3 [3]: nanomolar potencies
